From patent US9695168B2 (Incyte Corporation, priority 2014, dated 2017)

These compounds were tested against LSD1 (Homo sapiens (Human), UniProt O60341) (assay: LSD1 Histone Demethylase Biochemical Assay (LANCE LSD1/KDM1A demethylase assay)). Conditions: 1 nM LSD-1 enzyme, 1 hour preincubation at 25° C., 0.4 μM Biotin-labeled Histone H3 peptide substrate.
Protocol: LSD1 Histone Demethylase Biochemical Assay
LANCE LSD1/KDM1A demethylase assay-10 μL of 1 nM LSD-1 enzyme (ENZO BML-SE544-0050) in the assay buffer (50 mM Tris, pH 7.5, 0.01% Tween-20, 25 mM NaCl, 5 mM DTT) were preincubated for 1 hour at 25° C. with 0.8 μL compound/DMSO dotted in black 384 well polystyrene plates. […] Reactions were stopped by addition of 10 μL 1× LANCE Detection Buffer (PerkinElmer CR97-100) supplemented with 1.5 nM Eu-anti-unmodified H3K4 Antibody (PerkinElmer TRF0404), and 225 nM LANCE Ultra Streptavidin (PerkinElmer TRF102) along with 0.9 mM Tranylcypromine-HCl (Millipore 616431). After stopping the reactions plates were incubated for 30 minutes and read on a PHERAstar FS plate reader (BMG Labtech).
With CN(C)[C@H]1CCN(c2nc(-c3ccc(C#N)cc3)c(-c3ccc4c(c3)oc(=O)n4C)n3cncc23)C1 [Example 112, (S)-4-(8-(3-(dimethylamino)pyrrolidin-1-yl)-5-(3-methyl-2-oxo-2,3-dihydrobenzo[d]oxazol-6-yl)imidazo[1,5-a]pyrazin-6-yl)benzonitrile] the IC50 was 50 to 100 nM.
Compound CCn1nnc2cc(-c3c(-c4ccc(C#N)cc4)cc(OC[C@@H]4CCCN(C)C4)c4cncn34)cnc21 [Example 117, 4-(5-(3-ethyl-3H-[1,2,3]triazolo[4,5-b]pyridin-6-yl)-8-{[(3R)-1-methylpiperidin-3-yl]methoxy}imidazo[1,5-a]pyridin-6-yl)benzonitrile] has an IC50 of 50 to 100 nM.
CC(O)CN1CCC[C@@H](COc2cc(-c3ccc(C#N)cc3)c(-c3cnc4c(c3)OCCO4)n3cncc23)C1 (stereo partly drawn) [Example 118, 4-(5-(2,3-dihydro[1,4]dioxino[2,3-b]pyridin-7-yl)-8-{[(3R)-1-(2-hydroxypropyl)piperidin-3-yl]methoxy}imidazo[1,5-a]pyridin-6-yl)benzonitrile] gave an IC50 of 50 to 100 nM.
With CC(O)CN1CCC[C@@H](COc2cc(-c3ccc(C#N)cc3)c(-c3cnc4ccoc4c3)n3cncc23)C1 (stereo partly drawn) [Example 119, 4-(5-(furo[3,2-b]pyridin-6-yl)-8-(((3R)-1-(2-hydroxypropyl)piperidin-3-yl)methoxy)imidazo[1,5-a]pyridin-6-yl)benzonitrile] the IC50 was 50 to 100 nM.
CC(O)c1c(F)cc(-c2c(-c3ccc(C#N)cc3)cc(OC[C@@H]3CCCN(C)C3)c3cncn23)cc1F (stereo partly drawn) [Example 124, 4-(5-[3,5-difluoro-4-(1-hydroxyethyl)phenyl]-8-{[(3R)-1-methylpiperidin-3-yl]methoxy}imidazo[1,5-a]pyridin-6-yl)benzonitrile] showed an IC50 of 50 to 100 nM.
For CN1CCC[C@@H](COc2cc(-c3ccc(C#N)cc3)c(-c3ccc(C(C)(C)C#N)nc3)n3cncc23)C1 [Example 132, 4-(5-[6-(1-cyano-1-methylethyl)pyridin-3-yl]-8-{[(3R)-1-methylpiperidin-3-yl]methoxy}imidazo[1,5-a]pyridin-6-yl)benzonitrile], the IC50 was 50 to 100 nM.
Work on CCc1ccc(-c2c(-c3ccc(C#N)cc3)cc(OC[C@@H]3CCCN(C)C3)c3cncn23)cn1 [Example 133, 4-(5-(6-ethylpyridin-3-yl)-8-{[(3R)-1-methylpiperidin-3-yl]methoxy}imidazo[1,5-a]pyridin-6-yl)benzonitrile] yielded an IC50 of 50 to 100 nM.
Work on CNC(=O)c1ccc(-c2c(-c3ccc(C#N)cc3)cc(OC[C@@H]3CCCN(C)C3)c3cncn23)cn1 [Example 135, 5-(6-(4-cyanophenyl)-8-{[(3R)-1-methylpiperidin-3-yl]methoxy}imidazo[1,5-a]pyridin-5-yl)-N-methylpyridine-2-carboxamide] yielded an IC50 of 50 to 100 nM.
For Cc1ncc(-c2c(-c3ccc(C#N)cc3)nc(N3CCC(N(C)C)CC3)c3cncn23)cc1C(F)F [Example 140, 4-{5-[5-(difluoromethyl)-6-methylpyridin-3-yl]-8-[4-(dimethylamino)piperidin-1-yl]imidazo[1,5-a]pyrazin-6-yl}benzonitrile], the IC50 was 50 to 100 nM.
With CNC(=O)c1ccc(-c2c(-c3ccc(C#N)cc3)nc(N3CCC(N(C)C)CC3)c3cncn23)cn1 [Example 141, 5-{6-(4-cyanophenyl)-8-[4-(dimethylamino)piperidin-1-yl]imidazo[1,5-a]pyrazin-5-yl}-N-methylpyridine-2-carboxamide] the IC50 was 100 to 500 nM.
With CCN1CCC[C@@H](COc2cc(-c3ccc(C#N)cc3)c(-c3ccc(C)nc3)n3cncc23)C1 [Example 146, 4-[8-{[(3R)-1-ethylpiperidin-3-yl]methoxy}-5-(6-methylpyridin-3-yl)imidazo[1,5-a]pyridin-6-yl]benzonitrile] the IC50 was 50 to 100 nM.
For COCc1cc(-c2c(-c3ccc(C#N)cc3)cc(OC[C@@H]3CCCN(C)C3)c3cncn23)cnc1C [Example 147, 4-(5-[5-(methoxymethyl)-6-methylpyridin-3-yl]-8-{[(3R)-1-methylpiperidin-3-yl]methoxy}imidazo[1,5-a]pyridin-6-yl)benzonitrile], the IC50 was 50 to 100 nM.
COc1ncc(-c2c(-c3ccc(C#N)cc3)nc(N3CCC(N(C)C)CC3)c3cncn23)cn1 [Example 150, 4-[8-[4-(dimethylamino)piperidin-1-yl]-5-(2-methoxypyrimidin-5-yl)imidazo[1,5-a]pyrazin-6-yl]benzonitrile] gave an IC50 of 100 to 500 nM.
For CN1CCC[C@@H](COc2cc(-c3ccc(C#N)cc3)c(-c3ccc(C(C)(C)O)nc3)n3cncc23)C1 [Example 151, 4-(5-[6-(1-hydroxy-1-methylethyl)pyridin-3-yl]-8-{[(3R)-1-methylpiperidin-3-yl]methoxy}imidazo[1,5-a]pyridin-6-yl)benzonitrile], the IC50 was 100 to 500 nM.
For CN1CCC[C@@H](COc2cc(-c3ccc(C#N)cc3)c(-c3cnc4c(c3)OCC(=O)N4C)n3cncc23)C1 [Example 152, (R)-4-(5-(4-methyl-3-oxo-3,4-dihydro-2H-pyrido[3,2-b][1,4]oxazin-7-yl)-8-((1-methylpiperidin-3-yl)methoxy)imidazo[1,5-a]pyridin-6-yl)benzonitrile], the IC50 was 50 to 100 nM.
For CN1CCC[C@@H](COc2cc(-c3ccc(C#N)cc3)c(-c3ccc4c(c3)CN(C)C4=O)n3cncc23)C1 [Example 154, 4-(5-(2-methyl-1-oxo-2,3-dihydro-1H-isoindol-5-yl)-8-{[(3R)-1-methylpiperidin-3-yl]methoxy}imidazo[1,5-a]pyridin-6-yl)benzonitrile], the IC50 was 100 to 500 nM.
CC(C)n1nnc2cc(-c3c(-c4ccc(C#N)cc4)cc(OC[C@@H]4CCCN(C)C4)c4cncn34)cnc21 [Example 155, (R)-4-(5-(3-isopropyl-3H-[1,2,3]triazolo[4,5-b]pyridin-6-yl)-8-((1-methylpiperidin-3-yl)methoxy)imidazo[1,5-a]pyridin-6-yl)benzonitrile] showed an IC50 of 100 to 500 nM.
For CN1CCC[C@@H](COc2cc(-c3ccc(C#N)cc3)c(-c3cnc4c(c3)nnn4C3CC3)n3cncc23)C1 [Example 156, (R)-4-(5-(3-cyclopropyl-3H-[1,2,3]triazolo[4,5-b]pyridin-6-yl)-8-((1-methylpiperidin-3-yl)methoxy)imidazo[1,5-a]pyridin-6-yl)benzonitrile], the IC50 was 100 to 500 nM.
Compound CC(C)c1nc2cc(-c3c(-c4ccc(C#N)cc4)cc(OC[C@@H]4CCCN(C)C4)c4cncn34)cnc2n1C [Example 157, (R)-4-(5-(2-isopropyl-3-methyl-3H-imidazo[4,5-b]pyridin-6-yl)-8-((1-methylpiperidin-3-yl)methoxy)imidazo[1,5-a]pyridin-6-yl)benzonitrile] has an IC50 of 100 to 500 nM.
Compound CN1CCC[C@@H](COc2cc(-c3ccc(C#N)cc3)c(-c3cnc4c(c3)nc(C3CC3)n4C)n3cncc23)C1 [Example 158, (R)-4-(5-(2-cyclopropyl-3-methyl-3H-imidazo[4,5-b]pyridin-6-yl)-8-((1-methylpiperidin-3-yl)methoxy)imidazo[1,5-a]pyridin-6-yl)benzonitrile] has an IC50 of 100 to 500 nM.
